Assay results taken from patent US20160376659A1, “Breast Cancer Biomarker” (The University of Manchester, priority 2015, published 2016).
Entries after “also recorded” stand apart in the source; their conditions may differ.

Columns and labels:
[1] = test system: Notch1; assay: Notch1 activity in MCF7, MDA-MB-231 and BT474 cells; format: cell-based
[2] = test system: Notch4; assay: Notch4 activity in MCF7, MDA-MB-231 and BT474 cells; format: cell-based

SMILES | Notch1 activity [1] | Notch4 activity [2]
C[C@H](NC(=O)Cc1cc(F)cc(F)c1)C(=O)N[C@H](C(=O)OC(C)(C)C)c1ccccc1 [DAPT] | inhibit | no Notch4; also recorded: not NOTCH4 activity
C[C@H](NC(=O)Cc1cc(F)cc(F)c1)C(=O)N[C@@H]1C(=O)N(C)c2ccccc2-c2ccccc21 [DBZ] | inhibit | no Notch4; also recorded: not NOTCH4 activity
